Assay results from US20230117324A1, “OXAZINE MONOACYLGLYCEROL LIPASE (MAGL) INHIBITORS” (Hoffmann-La Roche Inc., priority 2018, published 2023).

The compounds below were run against T1, MAGL (Homo sapiens, UniProt Q99685) (assay: MAGL inhibition, 2-AG assay (hydrolysis of 2-arachidonoylglycerol, arachidonic acid by mass spectrometry)). Settings: 2-AG assay (footnote [b]).
T1 sequence (Q99685 1-303): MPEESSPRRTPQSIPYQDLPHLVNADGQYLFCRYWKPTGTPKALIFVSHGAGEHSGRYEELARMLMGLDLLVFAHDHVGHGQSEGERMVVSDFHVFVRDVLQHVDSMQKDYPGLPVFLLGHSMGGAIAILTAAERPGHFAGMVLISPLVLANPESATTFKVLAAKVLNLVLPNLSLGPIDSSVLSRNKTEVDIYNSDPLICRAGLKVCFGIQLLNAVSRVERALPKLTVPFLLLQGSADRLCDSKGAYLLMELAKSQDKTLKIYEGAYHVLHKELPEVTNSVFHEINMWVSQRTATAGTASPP
Assay type: biochemical
In short: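 Human MAGL […] was preincubated 15 min at RT with compound ([…], 3-fold steps) in 50 mM Tris, 1 mM EDTA, 0.01% Tween. 2-AG (8 μM) was then added for 30 min at RT. Arachidonic acid was quantified by RapidFire SPE–triple quadrupole MS in negative ESI as its ratio to a d8-arachidonic acid standard.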
`O=C1CO[C@H]2CCN(C(=O)N3CC(C(c4ccccc4)c4ccccc4)C3)C[C@H]2N1` [Example 86, (4aR,8aS)-6-(3-Benzhydrylazetidine-1-carbonyl)hexahydro-2H-pyrido[4,3-b][1,4]oxazin-3(4H)-one] was tested, and the IC50 was 155 nM. In the case of `O=C1CO[C@H]2CCN(C(=O)N3CC(c4ccc(-c5ccccc5OC(F)(F)F)cc4)C3)C[C@H]2N1` [Example 121, (4aR,8aS)-6-(3-(2′-(Trifluoromethoxy)-[1,1′-biphenyl]-4-yl)azetidine-1-carbonyl)hexahydro-2H-pyrido[4,3-b][1,4]oxazin-3(4H)-one], the IC50 is reported as 0.03 nM. Work on `CC(c1ccc(C(F)(F)F)cc1)C1CN(C(=O)N2CC[C@@H]3OCC(=O)N[C@@H]3C2)C1` (stereo partly drawn) [Example 83, (4aR,8aS)-6-[3-[1-[4-(Trifluoromethyl)phenyl]ethyl]azetidine-1-carbonyl]-4,4a,5,7,8,8a-hexahydropyrido[4,3-b][1,4]oxazin-3-one] yielded an IC50 of 114 nM. With `CC(c1ccc(C(F)(F)F)cc1)C1CN(C(=O)N2CC[C@@H]3OCC(=O)N[C@@H]3C2)C1` (single isomer, unassigned) [Example 104, (4aR,8aS)-6-(3-((R or S)-1-(4-(Trifluoromethyl)phenyl)ethyl)azetidine-1-carbonyl)hexahydro-2H-pyrido[4,3-b][1,4]oxazin-3(4H)-one] the IC50 was 111 nM. Compound `O=C1CO[C@H]2CCN(C(=O)N3CC(c4ccc(OCC5(C(F)(F)F)CC5)cc4)C3)C[C@H]2N1` [Example 244, (4aR,8aS)-6-[3-[4-[[1-(Trifluoromethyl)cyclopropyl]methoxy]phenyl]azetidine-1-carbonyl]-4,4a,5,7,8,8a-hexahydropyrido[4,3-b][1,4]oxazin-3-one] has an IC50 of 0.3 nM. `O=C1CO[C@H]2CCN(C(=O)N3CCC(c4cc(Cl)cc(Cl)c4)C3)C[C@H]2N1` (stereo partly drawn) [Example 235, (4aR,8aS)-6-(3-(3,5-Dichlorophenyl)pyrrolidine-1-carbonyl)hexahydro-2H-pyrido[4,3-b][1,4]oxazin-3(4H)-one] gave an IC50 of 243 nM. Work on `O=C1CO[C@H]2CCN(C(=O)N3CCC(C(OCC(F)(F)F)c4ccc(F)cc4)CC3)C[C@H]2N1` (single isomer, unassigned) [Example 57, (4aR,8aS)-6-(4-((R or S)-(4-Fluorophenyl)(2,2,2-trifluoroethoxy)methyl)piperidine-1-carbonyl)hexahydro-2H-pyrido[4,3-b][1,4]oxazin-3(4H)-one] yielded an IC50 of 29 nM. In the case of `Cc1noc(CC(c2ccc(F)cc2)C2CCN(C(=O)N3CC[C@@H]4OCC(=O)N[C@@H]4C3)CC2)n1` (single isomer, unassigned) [Example 60, (4aR,8aS)-6-(4-((S or R)-1-(4-Fluorophenyl)-2-(3-methyl-1,2,4-oxadiazol-5-yl)ethyl)piperidine-1-carbonyl)hexahydro-2H-pyrido[4,3-b][1,4]oxazin-3(4H)-one], the IC50 is reported as 67 nM. Compound `O=C1CO[C@H]2CCN(C(=O)N3CC(c4ccc(N5CC(OC(F)(F)F)C5)cc4)C3)C[C@H]2N1` [Example 153, (4aR,8aS)-6-(3-(4-(3-(Trifluoromethoxy)azetidin-1-yl)phenyl)azetidine-1-carbonyl)hexahydro-2H-pyrido[4,3-b][1,4]oxazin-3(4H)-one] has an IC50 of 2 nM. For `COc1cccc(C(c2ccccc2)C2CCN(C(=O)N3CC[C@@H]4OCC(=O)N[C@@H]4C3)CC2)c1` (single isomer, unassigned) [Example 65, (4aR,8aS)-6-(4-((R or S)-(3-Methoxyphenyl)(phenyl)methyl)piperidine-1-carbonyl)hexahydro-2H-pyrido[4,3-b][1,4]oxazin-3(4H)-one], the IC50 was 0.2 nM. `O=C1CO[C@H]2CCN(C(=O)N3CC(c4ccc(N5CCC(C(F)(F)F)C5)nc4)C3)C[C@H]2N1` (single isomer, unassigned) [Example 274, (4aR,8aS)-6-[3-[6-[3-(R or S)-(Trifluoromethyl)pyrrolidin-1-yl]-3-pyridyl]azetidine-1-carbonyl]-4,4a,5,7,8,8a-hexahydropyrido[4,3-b][1,4]oxazin-3-one] was tested, and the IC50 was 2 nM. `CC1C(c2ccc(OC(F)(F)F)cc2)CN1C(=O)N1CC[C@@H]2OCC(=O)N[C@@H]2C1` (stereo partly drawn) [Example 231, (4aR,8aS)-6-(2-Methyl-3-(4-(Trifluoromethoxy)phenyl)azetidine-1-carbonyl)hexahydro-2H-pyrido[4,3-b][1,4]oxazin-3(4H)-one] was tested, and the IC50 was 114 nM. `NCCOc1cccc(C(c2ccccc2)C2CCN(C(=O)N3CC[C@@H]4OCC(=O)N[C@@H]4C3)CC2)c1` (stereo partly drawn) [Example 252, (4aR,8aS)-6-[4-[[3-(2-Aminoethoxy)phenyl]-phenyl-methyl]piperidine-1-carbonyl]-4,4a,5,7,8,8a-hexahydropyrido[4,3-b][1,4]oxazin-3-one] was tested, and the IC50 was 2 nM. With `O=C1CO[C@H]2CCN(C(=O)N3CC(c4ccc(C(F)(F)F)c(F)c4)C3)C[C@H]2N1` [Example 254] the IC50 was 82 nM. With `O=C1CO[C@H]2CCN(C(=O)N3CC(c4ccc(N5CCC(C(F)(F)F)C5)cn4)C3)C[C@H]2N1` (single isomer, unassigned) [Example 272, (4aR,8aS)-6-(3-(5-((S or R)-3-(Trifluoromethyl)pyrrolidin-1-yl)pyridin-2-yl)azetidine-1-carbonyl)hexahydro-2H-pyrido[4,3-b][1,4]oxazin-3(4H)-one] the IC50 was 17 nM. Work on `CC(C)(OC1CN(c2ccc(C3CN(C(=O)N4CC[C@@H]5OCC(=O)N[C@@H]5C4)C3)cc2)C1)C(F)(F)F` [Example 147, (4aR,8aS)-6-(3-(4-(3-((1,1,1-Trifluoro-2-methylpropan-2-yl)oxy)azetidin-1-yl)phenyl)azetidine-1-carbonyl)hexahydro-2H-pyrido[4,3-b][1,4]oxazin-3(4H)-one] yielded an IC50 of 1 nM. `CC1CCN1c1ccc(C2CN(C(=O)N3CC[C@@H]4OCC(=O)N[C@@H]4C3)C2)cc1` (stereo partly drawn) [Example 217, (4aR,8aS)-6-(3-(4-(2-Methylazetidin-1-yl)phenyl)azetidine-1-carbonyl)hexahydro-2H-pyrido[4,3-b][1,4]oxazin-3(4H)-one] gave an IC50 of 6 nM. For `Cc1noc(CC(c2ccc(F)cc2)C2CCN(C(=O)N3CC[C@@H]4OCC(=O)N[C@@H]4C3)CC2)n1` (stereo partly drawn) [Example 51, (4aR,8aS)-6-(4-(1-(4-Fluorophenyl)-2-(3-methyl-1,2,4-oxadiazol-5-yl)ethyl)piperidine-1-carbonyl)hexahydro-2H-pyrido[4,3-b][1,4]oxazin-3(4H)-one], the IC50 was 63 nM. In the case of `CC(C)(C)OC(=O)NCCOCCC(=O)NCCOc1cccc(C(c2ccccc2)C2CCN(C(=O)N3CC[C@@H]4OCC(=O)N[C@@H]4C3)CC2)c1` (stereo partly drawn) [Example 255, tert-Butyl N-[2-[3-[2-[3-[[1-[(4aR,8aS)-3-oxo-4,4a,5,7,8,8a-hexahydropyrido[4,3-b][1,4]oxazine-6-carbonyl]-4-piperidyl]-phenyl-methyl]phenoxy]ethylamino]-3-oxo-propoxy]ethyl]carbamate], the IC50 is reported as 2 nM. In the case of `O=C1CO[C@H]2CCN(C(=O)N3CCC(c4ccc(Br)cc4)CC3)C[C@H]2N1` [Example 157, (4aR,8aS)-6-(4-(4-Bromophenyl)piperidine-1-carbonyl)hexahydro-2H-pyrido[4,3-b][1,4]oxazin-3(4H)-one], the IC50 is reported as 289 nM. `N#CC(c1ccc(F)cc1)C1CCN(C(=O)N2CC[C@@H]3OCC(=O)N[C@@H]3C2)CC1` (stereo partly drawn) [Example 48, 2-(4-Fluorophenyl)-2-(1-((4aR,8aS)-3-oxooctahydro-2H-pyrido[4,3-b][1,4]oxazine-6-carbonyl)piperidin-4-yl)acetonitrile] gave an IC50 of 361 nM. `CC(C)(C)Oc1ccc(C2CN(C(=O)N3CC[C@@H]4OCC(=O)N[C@@H]4C3)C2)cc1` [Example 262, (4aR,8aS)-6-[3-(4-tert-Butoxyphenyl)azetidine-1-carbonyl]-4,4a,5,7,8,8a-hexahydropyrido[4,3-b][1,4]oxazin-3-one] gave an IC50 of 1 nM. In the case of `O=C1CO[C@H]2CCN(C(=O)N3CC(c4ccc(-c5ccc(Cl)cc5Cl)nc4)C3)C[C@H]2N1` [Example 154, (4aR,8aS)-6-(3-(6-(2,4-Dichlorophenyl)pyridin-3-yl)azetidine-1-carbonyl)hexahydro-2H-pyrido[4,3-b][1,4]oxazin-3(4H)-one], the IC50 is reported as 1 nM. `O=C1CO[C@H]2CCN(C(=O)N3CCC(c4cccc(OC(F)(F)F)c4)C3)C[C@H]2N1` (single isomer, unassigned) [Example 221, (4aR,8aS)-6-[3-(S or R)-[3-(Trifluoromethoxy)phenyl]pyrrolidine-1-carbonyl]-4,4a,5,7,8,8a-hexahydropyrido[4,3-b][1,4]oxazin-3-one] showed an IC50 of 178 nM. With `CC(OC1CN(c2ccc(C3CN(C(=O)N4CC[C@@H]5OCC(=O)N[C@@H]5C4)C3)cc2)C1)C(F)(F)F` (single isomer, unassigned) [Example 161, (4aR,8aS)-6-[3-[4-[3-[(1R or 1S)-2,2,2-Trifluoro-1-methyl-ethoxy]azetidin-1-yl]phenyl]azetidine-1-carbonyl]-4,4a,5,7,8,8a-hexahydropyrido[4,3-b][1,4]oxazin-3-one] the IC50 was 4 nM. `CC(F)(F)c1ccc(C2CN(C(=O)N3CC[C@@H]4OCC(=O)N[C@@H]4C3)C2)cc1` [Example 148, (4aR,8aS)-6-(3-(4-(1,1-Difluoroethyl)phenyl)azetidine-1-carbonyl)hexahydro-2H-pyrido[4,3-b][1,4]oxazin-3(4H)-one] showed an IC50 of 14 nM.
